Test results as given in patent publication US20240180849A1, “IMMUNOFUNCTIONAL CARRIER, METHODS OF USES, AND COMPOSITION MATTERS AS AN ANTITUMOR IMMUNOTHERAPY” (priority 2021, published 2024).

Experiments:
[1] = tested on: splenocytes; experiment: Cytotoxicity, propidium iodide staining; type: cell-based, mouse; conditions: at ≤PTX 2 μg/mL (and 2E′ 10 μg/mL)
Protocol: The spleen was collected from healthy or tumor-bearing mice to isolate splenocytes. The collected spleens were cut into pieces and filtered through 70 μm and 40 μm cell strainers sequentially to obtain a single-cell suspension. The cell suspension was incubated with 1 mL ammonium-chloride-potassium (ACK) lysis buffer for 3 min to remove red blood cells.

[2] = tested on: BMDCs; experiment: Cytotoxicity, propidium iodide staining; type: cell-based, mouse; conditions: at ≤PTX 2 μg/mL (and 2E′ 10 μg/mL)
Protocol: (§1) Bone marrow-derived dendritic cells (BMDCs) and bone marrow-derived macrophages (BMDMs) were differentiated from mouse bone marrow cells. The bone marrow was collected from the femur of female Balb/c or male C57BL/6 mice (7 weeks old), pipetted several times, and passed through a 100 and 40 μm cell strainer to obtain single-cell suspension. The cells were collected by centrifugation at 500 ref for 8 min, treated with ACK lysis buffer, rinsed, and cultured in Alpha minimum essential medium (MEM-Alpha, ribonucleosides, deoxyribonucleosides, 4 mM L-glutamine, 1 mM sodium pyruvate) supplemented with 100 units/mL penicillin, 100 μg/mL streptomycin, […] β-mercaptoethanol, 20 ng/ml murine GM-CSF and 20% fetal bovine serum. After 7 days, floating or loosely adherent cells were collected by centrifugation and identified as BMDC by APC anti-mouse CD11c antibody labeling. Adherent cells were identified as BMDM by FITC anti-mouse F4/80 antibody labeling.

[3] = tested on: CT26 cells; experiment: Cytotoxicity, MTT assay; type: cell-based, mouse
Protocol: CT26 cells, B16F10 cells, BMDC, or splenocytes were seeded in a 96 well plate at a density of 8,000 cells per well (CT26, B16F10) or 15,000 cells per well (BMBCs, splenocytes). […] After incubation for another 24 h, the cell cytotoxicity was measured by the MTT assay (CT26, B16F10) or propidium iodide (PI) staining (BMDC, splenocytes). […] The values of CI<1, CI=1, and CI>1 represent synergy, additivity, and antagonism, respectively^53.

[4] = tested on: CT26 tumors; experiment: Antitumor effects in Balb/c mice with bilateral CT26 tumors; type: in vivo; conditions: single IT injection, 1 mg 2E′ (+0.2 mg PTX) per mouse
Protocol: Tumors were established in both flanks simultaneously by subcutaneous inoculation. 1×10^6 of CT26 cells were innoculated in the flank of the right hind limb, and 3×10^5 of CT26 cells in the left flank of the same mouse. […] The sizes of the treated tumor and the non-treated tumor on the left side were measured with a digital caliper every other day, and tumor volumes were calculated as (width^2×length)/2.

[5] = biological target: T1, TLR-5 (Mus musculus, UniProt Q9JLF7); experiment: TLR-5 activation assay, HEK-Blue mTLR5 reporter cells (SEAP); type: cell-based; conditions: TLR reporter cell line, colorimetric SEAP
T1 construct: host or cells: HEK-Blue mTLR5 cells
T1 sequence (Q9JLF7 27-859): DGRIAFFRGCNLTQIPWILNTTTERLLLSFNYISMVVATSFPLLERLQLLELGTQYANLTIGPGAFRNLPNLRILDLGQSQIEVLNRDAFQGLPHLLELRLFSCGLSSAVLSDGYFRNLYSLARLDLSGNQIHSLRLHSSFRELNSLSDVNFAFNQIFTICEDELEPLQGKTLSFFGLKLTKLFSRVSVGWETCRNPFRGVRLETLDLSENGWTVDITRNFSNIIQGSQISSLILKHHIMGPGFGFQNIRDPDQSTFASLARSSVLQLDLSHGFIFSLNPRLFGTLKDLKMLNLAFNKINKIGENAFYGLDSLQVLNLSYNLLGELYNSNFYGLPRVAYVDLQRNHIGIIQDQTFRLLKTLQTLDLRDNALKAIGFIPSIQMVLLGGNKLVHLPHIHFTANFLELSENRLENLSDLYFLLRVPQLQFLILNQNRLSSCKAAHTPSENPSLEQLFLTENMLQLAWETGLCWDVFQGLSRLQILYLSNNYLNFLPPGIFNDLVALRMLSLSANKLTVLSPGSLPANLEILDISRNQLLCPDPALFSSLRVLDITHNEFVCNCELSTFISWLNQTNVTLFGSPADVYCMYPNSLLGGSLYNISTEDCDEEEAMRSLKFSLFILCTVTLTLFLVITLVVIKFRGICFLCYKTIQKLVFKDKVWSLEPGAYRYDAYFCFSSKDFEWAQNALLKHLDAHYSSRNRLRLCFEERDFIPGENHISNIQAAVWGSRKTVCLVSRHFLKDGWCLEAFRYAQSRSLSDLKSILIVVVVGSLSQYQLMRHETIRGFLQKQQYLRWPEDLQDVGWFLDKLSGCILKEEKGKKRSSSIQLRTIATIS
Protocol: (§2) TLR-5 activation was tested with HEK-Blue™ mTLR5 Cells, TLR-5 reporter cells (Invitrogen, Carlsbad, CA). The TLR-4 reporter cells were plated in a 96 well plate at a density of 100,000 cells per well in RPMI medium. The TLR-5 reporter cells were plated in a 96 well plate with a density of 25,000 cells per well in HEK-Blue™ Detection medium. […] The supernatant was collected for secreted embryonic alkaline phosphatase (SEAP) assay. The absorbance of SEAP was measured at 620 nm.

[6] = tested on: DCs or BMDMs co-cultured with CT26 or B16F10 cells; conditions: PTX-pretreated CT26 or B16F10 cells, with 7 μg/mL 2E′
Protocol: CT26 or B16F10 cancer cells were stained with Cell Tracker Green (Invitrogen, Carlsbad, CA) for 1 h and treated with 5 μg/mL PTX for 24 h. […] The co-cultured cells were collected, resuspended in staining buffer, and analyzed by the BD Accuri C6 Flow Cytometer or BD LSRFortessa Flow Cytometer (San Jose, CA, USA). DCs taking up the PTX-treated cancer cells (cancer cell^+ DC or macrophages) was quantified as the percentage of double-positive cells in Cell-Tracker Deep Red-stained BMDC, JAWSII DC or BMDM, and the phagocytized cancer cells as the percentage of double-positive cells in Cell Tracker Green-stained cancer cells.

[7] = tested on: BMDCs and JAWSII DCs; experiment: BMDC and JAWSII DC stimulation (maturation markers, flow cytometry); type: cell-based, mouse
[8] = biological target: T2, TLR-4 (Homo sapiens, UniProt O00206); experiment: TLR-4 activation assay, THP1-XBlue-MD2-CD14 reporter cells (SEAP); type: cell-based; conditions: at comparable concentrations
T2 construct: host or cells: THP1-XBlue-MD2-CD14 cells
T2 sequence (O00206 24-839): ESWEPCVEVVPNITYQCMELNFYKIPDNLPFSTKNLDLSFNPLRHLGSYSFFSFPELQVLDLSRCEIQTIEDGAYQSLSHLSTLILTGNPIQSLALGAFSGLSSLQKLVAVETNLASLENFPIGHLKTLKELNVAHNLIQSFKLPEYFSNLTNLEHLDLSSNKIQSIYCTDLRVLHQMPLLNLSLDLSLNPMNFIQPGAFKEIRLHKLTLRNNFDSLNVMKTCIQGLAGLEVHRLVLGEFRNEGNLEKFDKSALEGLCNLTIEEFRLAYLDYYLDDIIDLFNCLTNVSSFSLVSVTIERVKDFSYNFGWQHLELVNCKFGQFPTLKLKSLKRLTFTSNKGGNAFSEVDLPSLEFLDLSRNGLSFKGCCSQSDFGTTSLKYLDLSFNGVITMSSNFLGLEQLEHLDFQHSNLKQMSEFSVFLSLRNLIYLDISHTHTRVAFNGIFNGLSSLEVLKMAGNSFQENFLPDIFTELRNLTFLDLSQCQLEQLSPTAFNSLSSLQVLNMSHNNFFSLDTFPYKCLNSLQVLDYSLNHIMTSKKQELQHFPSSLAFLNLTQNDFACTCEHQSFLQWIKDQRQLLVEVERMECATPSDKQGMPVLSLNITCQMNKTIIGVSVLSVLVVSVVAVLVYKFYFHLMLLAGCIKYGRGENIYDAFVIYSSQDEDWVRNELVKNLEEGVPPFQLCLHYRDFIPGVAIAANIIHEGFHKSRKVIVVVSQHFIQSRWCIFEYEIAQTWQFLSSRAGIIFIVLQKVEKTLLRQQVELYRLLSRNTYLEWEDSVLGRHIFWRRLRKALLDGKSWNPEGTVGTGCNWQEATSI
T2 sequence (Q9Y6Y9 17-160 partner limits assumed): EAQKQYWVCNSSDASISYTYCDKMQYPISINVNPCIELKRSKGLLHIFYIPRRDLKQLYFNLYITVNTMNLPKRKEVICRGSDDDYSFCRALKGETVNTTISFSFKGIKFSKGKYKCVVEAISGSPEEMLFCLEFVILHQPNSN
Protocol: as §2

[9] = tested on: CT26 tumors; experiment: Antitumor effects in Balb/c mice with CT26 tumors and delayed rechallenge(s) of live cells; type: in vivo
Description: Tumor growth was monitored as described above. To test whether antitumor immunity was established, the mice surviving with complete tumor remission by 30 days from the treatment were rechallenged with 1×10^5 live CT26 cells on the contralateral flank. The mice resistant to the first rechallenge were challenged again with 2×10^6 live CT26 cells on 60 days from the treatment. In two separate experiments, surviving Balb/c mice were rechallenged once on 6 or 17 days after the treatment.

[10] = tested on: BMDCs and BMDMs; experiment: Cytokine production from BMDC and BMDM (ELISA); type: cell-based, mouse; conditions: 24 h
Protocol: as §1
After 24 h incubation, the cells were collected, resuspended in staining buffer, incubated with Fc-blocking antibody for 15 min at 4° C., labeled with anti-mouse CD11c, CD86, CD40, and MHC-II antibodies for 20 min at 4° C., and analyzed by the BD Accuri C6 Flow Cytometer. […] After 24 h, the media were analyzed for IL-1β and TNF-α by ELISA (Invitrogen, Carlsbad, CA) according to the manufacturer's protocols.

[11] = tested on: B16F10 cells; conditions: 24 h incubation
[12] = tested on: CT26 and B16F10 cells; experiment: CRT expression in tumor cells; type: cell-based, mouse
Protocol: 2×10^5 CT26 or B16F10 cells were seeded in a 6-well plate overnight. […] After 6 h or 24 h, the cells were collected, resuspended in staining buffer, incubated with anti-mouse CD16/32 antibody to block non-specific binding of the immunoglobulin to Fc receptors, and stained with Alexa Fluor 488-conjugated anti-CRT monoclonal antibody (ab196158, Abcam). The cells were incubated with 0.5 μg/mL propodium iodide for 1 min prior to the analysis with the BD Accuri C6 Flow Cytometer. For visualizing CRT exposure, 2×10^5 CT26 or B16F10 cells were seeded in a confocal dish, incubated with different treatments for 24 h, washed, stained in the same manner as above, and fixed with 4% paraformaldehyde. Confocal images of the fixed cells were taken with the Nikon A1R confocal microscope (Nikon America Inc., Melville, NY) after brief staining with 2 μg/mL Hoechst 33342.

Row | Molecule | cytotoxicity to splenocytes [1] | cytotoxicity to BMDCs [2] | toxicity to CT26 cells relative to normal splenocytes [3] | toxicity to CT26 cells relative to BMDCs ([3]; 24 h incubation) | growth of untreated distant tumors vs D5W [4] | mice with complete regression (CR) of the treated tumors [4] | TLR-5 signaling [5] | fractions of DCs or BMDMs taking up cancer cells and of cancer cells taken up [6] | maturation of DCs ([7]; BMDCs, JAWSII DCs, 24 h) | immunostimulatory responses relative to PEI ([7]; all tests: DC maturation, TNF-α/IL-1β, TLR-5, CRT) | TLR-4 signaling [8] | mice with CR (tumor-free) ([9]; 1 mg 2E′, 0.2 mg/mL PTX, 0.67 mg siRNA, single IT, n=8) | animals with CR of the treated tumors ([9]; 1.4 mg 2E′ (+0.2 mg PTX) per mouse, single IT) | tumor-free mice in which growth of rechallenged tumor was prevented ([9]; 1.4 mg 2E′ (+0.2 mg PTX), rechallenge with live CT26 cells day 17) | mice with growth of primary tumors inhibited ([9]; 2.7 mg 2E′ (+0.4 mg PTX) per mouse, single IT) | mice with no tumor growth of untreated distant tumor ([9]; 2.7 mg 2E′ (+0.4 mg PTX), distant tumor inoculated 6 days after treatment) | tumor growth after second rechallenge ([9]; 2×10^6 live CT26 cells) | TNF-α and IL-1β production/secretion [10] | toxicity to B16F10 cells relative to BMDCs [11] | cell surface calreticulin (CRT) exposure [12]
1 | CC(=O)O[C@H]1C(=O)[C@@]2(C)[C@H]([C@H](OC(=O)c3ccccc3)[C@]3(O)C[C@H](OC(=O)[C@H](O)[C@@H](NC(=O)c4ccccc4)c4ccccc4)C(C)=C1C3(C)C)[C@]1(OC(C)=O)CO[C@@H]1C[C@@H]2O [PTX, paclitaxel] | did not show significant cytotoxicity | did not show significant cytotoxicity | – | – | – | – | – | – | – | – | – | – | – | – | – | – | – | – | – | –
2 | Polyethyleneimine-Lithocholic Acid Conjugate [2E′] | – | – | greater toxicity to CT26 cells than normal splenocytes | more toxic to CT26 and B16F10 cells than to bone marrow-derived DCs | the difference was insignificant | 60% | activated TLR-5 signaling | substantially increased | induced the maturation of BMDCs and JAWSII DCs | induced greater responses than PEI | Neither 2E′ nor PEI activated TLR-4 signaling | 50% | 40% | one of the two | 57% | 57% | exponential tumor growth in 10-15 days after the second challenge | promoted the production | more toxic to CT26 and B16F10 cells than to bone marrow-derived DCs | exposed the cell surface calreticulin (CRT)
